In US20040220164A1, “Triaza compound immunoregulatory agents” (priority 2001, published 2004):
Converted amounts (≈) assume the structure as drawn. Like-named read-outs stand apart in the source and are kept apart here.

How the values were obtained:
[1] = test system: HIV-1 strain NL4.3; assay: Anti-HIV-1 assay in MT-4 cells (p24 Ag ELISA, Example 3); assay type: cell-based
Protocol: Antiviral Assays. For HIV-1, MT-4 cells were infected with the HIV-1 strain NL4.3. Briefly, five-fold dilutions of the compounds (in 100 μl) were added to 96-well flat bottom plates (Iwaki, Japan). Then, to each well, 7.5×10^4 MT-4 cells were added in 50 μl medium, followed by 50 μl of diluted HIV-1 stock (strain NL4.3). Cytopathic effect (CPE) induced by the virus was checked regularly microscopically. When strong CPE was observed (after 3 to 5 days of incubation) in untreated HIV-1 infected cells, the supernatant was collected, stored at −20° C. and analyzed for HIV-1 core antigen by p24 Ag ELISA (NEN™, PerkinElmer Life Sciences, Boston, Mass.). Finally, the IC50 value of the compounds (i.e., the concentration of the compound required for 50% reduction of HIV infection as measured by viral p24 antigen level in the supernatant of infected MT-4 cells) was calculated.

[2] = test system: HHV-7 (KHR strain); assay: Anti-HHV-7 assay in SupT1 cells (antigen expression, flow cytometry, Example 3); assay type: cell-based; conditions: SUP-T1; SupT1 cells; read-out: IC50 HHV-7 (50% reduction of HHV-7 antigen expression)
Protocol: For HHV-7, five-fold dilutions of the compounds were added in 500 μl culture medium in 24-well flat bottom plates (Iwaki, Japan), whereupon 2×10^5 SupT1 cells were added in 400 μl culture medium. After 30 min incubation at room temperature, 100 μl of HHV-7 stock was added to each well. HHV-7-infected and mock-infected SupT1 cells were cultured in a final volume of 1 ml medium in the absence of the compounds. On day 4, half of the medium and the cells were replaced and fresh medium without new compound was added. This procedure was repeated every 2 or 3 days. The CPE was checked regularly microscopically. When CPE was observed, the HHV-7 antigen expression was monitored by flow cytometry, as described previously (Zhang, Y. et al. (1999) “Selective activity of various antiviral compounds against HHV-7 infection Antiviral Res. 43, 23-35.)

[3] = Cytotoxicity assay (trypan blue exclusion, propidium iodide); assay type: cell-based, human; conditions: human
Protocol: Cytotoxicity Assay. Cellular toxicity of the compounds was measured by trypan blue exclusion and also by Propidium Iodide by flow cytometry after 3 or 4 days of incubation, in parallel with the CD4 antigen expression. The CC50 value of each CADA analog is the concentration (in μg/ml) required to reduce the viability of the cells by 50%.

[4] = molecular target: T1, CD4 (Homo sapiens, UniProt P01730); assay: CD4 down-modulation, flow cytometry with FITC-conjugated anti-CD4 (SK3) mAb, MT-4 cells; assay type: cell-based; design: To study the effect of the CADA derivatives on surface CD4 antigen expression, MT-4 and SupT1 cells were incubated; endogenous in cells; host or cells: MT-4, SupT1, PBMC; conditions: for IC50: MT-4 cells, day 3, read-out: IC50 CD4 (50% inhibition of extracellular CD4 expression) (converted); for CD4 down-modulating activity compared with CADA or parent analog (in words): structure-activity discussion of Table 5 (MT-4 and SupT1 cells); for CD4 down-modulating activity, fold less active than CADA: compared to CADA, MT-4 cells (stated for some compounds)
Protocol: Flow Cytometric Analyses. To study the effect of the CADA derivatives on surface CD4 antigen expression, MT-4 and SupT1 cells were incubated with a serial 5-fold dilution of the compounds (50, 10, 2, 0.4 and 0.08 μg/ml) or medium at 37° C. […] Briefly, after washing with phosphate-buffered saline (PBS) containing 2% fetal calf serum (FCS), cells were incubated with FITC-conjugated anti-CD4 (SK3) mAb for 30 min at 4° C. As a negative control for a specific background staining, cells were stained in parallel with Simultest Control γ1/γ^2a (Becton Dickinson). Then the cells were washed, fixed with 1% formaldehyde and analyzed by flow cytometry in a FACScalibur (Becton Dickinson, San Jose, Calif., USA). Data were acquired and analyzed with CellQuest software (Becton Dickinson). For the calculation of the CD4 receptor expression, the mean fluorescence intensity (MFI) of each sample was expressed as percentage of the MFI of control cells (after subtracting the MFI of the isotype control). Finally, the IC50 value of the compounds (i.e., the concentration of the compound required for 50% inhibition of extracellular CD4 expression) was calculated.

[5] = molecular target: T1, CD4; assay: CD4 down-modulation, flow cytometry with FITC-conjugated anti-CD4 (SK3) mAb, SupT1 cells; assay type: cell-based; design: To study the effect of the CADA derivatives on surface CD4 antigen expression, MT-4 and SupT1 cells were incubated; endogenous in cells; host or cells: MT-4, SupT1, PBMC; conditions: day 4, read-out: IC50 CD4 (50% inhibition of extracellular CD4 expression) (converted)
Protocol: Flow Cytometric Analyses. To study the effect of the CADA derivatives on surface CD4 antigen expression, MT-4 and SupT1 cells were incubated with a serial 5-fold dilution of the compounds (50, 10, 2, 0.4 and 0.08 μg/ml) or medium at 37° C. Cell surface CD4 antigen expression was analyzed at day 3 (MT-4) or day 4 (SupT1). Briefly, after washing with phosphate-buffered saline (PBS) containing 2% fetal calf serum (FCS), cells were incubated with FITC-conjugated anti-CD4 (SK3) mAb for 30 min at 4° C. As a negative control for a specific background staining, cells were stained in parallel with Simultest Control γ1/γ^2a (Becton Dickinson). Then the cells were washed, fixed with 1% formaldehyde and analyzed by flow cytometry in a FACScalibur (Becton Dickinson, San Jose, Calif., USA). Data were acquired and analyzed with CellQuest software (Becton Dickinson). For the calculation of the CD4 receptor expression, the mean fluorescence intensity (MFI) of each sample was expressed as percentage of the MFI of control cells (after subtracting the MFI of the isotype control). Finally, the IC50 value of the compounds (i.e., the concentration of the compound required for 50% inhibition of extracellular CD4 expression) was calculated.

[6] = molecular target: T1, CD4; assay: Cell surface CD4 expression by flow cytometry (anti-CD4 mAb Leu3a-PE); assay type: cell-based; design: To study the effect of the CADA derivatives on surface CD4 antigen expression, MT-4 and SupT1 cells were incubated; endogenous in cells; host or cells: MT-4, SupT1, PBMC; conditions: staurosporine together with CADA
Protocol: FIGS. 2A-2C. Surface CD4 expression in MT-4 cell line, SupT1 cell line and PBMCs after incubation with CADA hydrochloride (3.2 or 16 μM) for 1 and 4 days. (A) Cell surface CD4 expression of control MT-4 cells and MT-4 cells treated with CADA (3.2 μM) for 1 day or 4 days. (B) Cell surface CD4 expression of control SupT1 cells and SupT1 cells treated with CADA (3.2 μM) for 1 day or 4 days. (C) Cell surface CD4 expression of control PBMCs and PBMCs treated with CADA (16 μM) for 1 day or 4 days. The cells were stained with anti-CD4 mAb (Leu3a-PE). Percentages of fluorescent cells and MFI (mean fluorescence intensity) are indicated in each histogram.
FIG. 4. Comparison of the effects on CD4 modulation by ATA (24 μM), CADA hydrochloride (16 μM) and PMA (8 nM) in SupT1 cells after incubation with the compounds analyzed after 20 minutes, 4 hours, 1 day and 4 days.
Cells were incubated with CADA hydrochloride and the CD4 expression on the cell surface was analyzed. […] In peripheral blood mononuclear cells (PBMCs), the percentage of CD4 expression decreased to 0.2% after incubation with CADA (16 μM) for 4 days (FIG. 2).
Expression of various other surface antigens was also examined in MT-4 cells, SupT1 cells and PBMCs after incubation with CADA (16 μM) or CADA-free medium at 37° C. for 4 days. After washing with phosphate-buffered saline (PBS) containing 2% FCS(fetal calf serum), the cells were incubated with mAb (as indicated in Table 1) for 20 min at 4° C. Then the cells were washed, fixed with 1% formaldehyde and analyzed by flow cytometry. All mAbs were purchased from Becton-Dickinson (Erembodegem, Belgium).
CADA was compared with ATA and PMA with regard to their down-modulating effects. […] At day 4, the CD4 expression in SupT1 cells treated with CADA reduced to 1.2%.

[7] = Human immunodeficiency virus 1, MT4, MT-4 cells, read-out: IC50 HIV-1 (NL4.3), p24 Ag ELISA
[8] = MT-4 cells, read-out: CC50 (50% cytotoxic concentration)
[9] = SupT1 cells, read-out: CC50 (50% cytotoxic concentration)
[10] = Human immunodeficiency virus 1, MT4 cells, Table 6, unit inferred, read-out: IC50(HIV-1)
[11] = MT-4 cells, MT4 cells, Table 6, unit inferred, read-out: CC50
[12] = SupT1 cells, Table 6, unit inferred, read-out: CC50

| Compound | IC50 [1, 7] [µg/mL] | IC50 [2] [µg/mL] | CC50 [3, 8] [µg/mL] | CC50 [3, 9] [µg/mL] | IC50 [4] [µM] | CD4 down-modulating activity compared with CADA or parent analog (in words) [4] | IC50 [5] [µM] | CD4 down-modulating activity, fold less active than CADA [4] [fold] | effect of PKC blocker on the down-modulation of CD4 with CADA [6] | IC50 [1, 10] [µg/mL] | CC50 [3, 11] [µg/mL] | CC50 [3, 12] [µg/mL] |
| --- | --- | --- | --- | --- | --- | --- | --- | --- | --- | --- | --- | --- |
| C=C1CN(S(=O)(=O)c2ccc(C)cc2)CCCN(S(=O)(=O)c2ccc(C)cc2)CCCN(S(=O)(=O)c2ccc(C)cc2)C1 [AS112] | > 10 | > 50 | 27.8 (≈ 43 µM) | > 50 | > 15.5 | negative effect | > 77.4 | – | – | – | – | – |
| C=C1CN(S(=O)(=O)c2ccc(COCCCC)cc2)CCCN(Cc2ccccc2)CCCN(S(=O)(=O)c2ccc(COCCCC)cc2)C1 [MFS117] | ≥ 10 | 0.92 (≈ 1.27 µM) | 18.9 (≈ 26 µM) | > 50 | > 13.8 | significant loss | > 68.9 | – | – | – | – | – |
| Cc1ccc(S(=O)(=O)N2CCCN(Cc3ccccc3)CCCN(S(=O)(=O)c3ccc(C)cc3)CC(CCl)C2)cc1 [AS117] | 1.15 (≈ 1.86 µM) | 0.78 (≈ 1.26 µM) | 30.7 (≈ 49.7 µM) | > 50 | 1.81 | – | 2.41 | 3 | – | – | – | – |
| C=C1CN(S(=O)(=O)c2ccc(C)cc2)CCCN(Cc2ccccn2)CCCN(S(=O)(=O)c2ccc(C)cc2)C1 [Compound 98-037] | > 50 | > 50 | > 50 | > 50 | > 85.8 | complete loss of activity | > 85.8 | – | – | – | – | – |
| Cc1ccc(S(=O)(=O)N2CCCN(Cc3ccccc3)CCCN(S(=O)(=O)c3ccc(C)cc3)CCC2)cc1 [MFS-SC001] | > 10 | 0.65 (≈ 1.14 µM) | 23.1 (≈ 40.5 µM) | 32.2 (≈ 56.5 µM) | 12.4 | – | 7.18 | 20 | – | – | – | – |
| C=C1CN(S(C)(=O)=O)CCCN(Cc2ccccc2)CCCN(S(C)(=O)=O)C1 [MFS105] | > 50 | > 50 | > 50 | > 50 | > 116 | significant loss | > 116 | – | – | – | – | – |
| Cc1ccc(S(=O)(=O)N2CCCN(Cc3ccccc3)CCCN(S(=O)(=O)c3ccc(C)cc3)CC(CO)C2)cc1 [HJC321] | 3.88 (≈ 6.47 µM) | 1.94 (≈ 3.23 µM) | 26.1 (≈ 43.5 µM) | > 50 | 3.32 | – | 5.28 | 6 | – | – | – | – |
| CN[C@@H]1C[C@H]2O[C@@](C)([C@@H]1OC)n1c3ccccc3c3c4c(c5c6ccccc6n2c5c31)C(=O)NC4 [staurosporine, reference compound] | – | – | – | – | – | – | – | – | did not show any effect | – | – | – |
| C=C1CN(S(=O)(=O)c2ccc(C)cc2)CCCN(Cc2ccccc2)CCCN(S(=O)(=O)c2cccc3c(N(C)C)cccc23)C1 [KKD015, 9-Benzyl-3-methylene-1-(5-dimethylamino-1-naphthalenesulfonyl)-5-p-toluenesulfonyl-1,5,9-triazacyclododecane] | – | – | – | – | – | – | – | – | – | 6.7 (≈ 10.1 µM) | > 100 | > 100 |
| C=C1CN(S(=O)(=O)c2ccc(C)cc2)CCCN(CC2CCCCC2)CCCN(S(=O)(=O)c2cccc3c(N(C)C)cccc23)C1 [KKD016, 9-methylcyclohexane-3-methylene-1-(5-dimethylamino-1-naphthalenesulfonyl)-5-p-toluenesulfonyl-1,5,9-triazacyclododecane] | – | – | – | – | – | – | – | – | – | 1.15 (≈ 1.72 µM) | 61.2 (≈ 91.8 µM) | 27.4 (≈ 41.1 µM) |
